Numbering of substitutions follows the chain as printed.
Columns and labels:
FLT3-D835Y Ba/F3 cells = target: T1, FLT3-D835Y Ba/F3 cells (Homo sapiens, UniProt P36888, D835Y, cells depend on it); assay: Growth inhibitory activity against Ba/F3 cell line; type: cell-based; conditions: Ba/F3 expressing FLT3-D835Y; 72 hours; cell titer glo; read-out: IC50 (uM) FLT3-D835Y
T1 sequence (P36888 1-993 D835Y): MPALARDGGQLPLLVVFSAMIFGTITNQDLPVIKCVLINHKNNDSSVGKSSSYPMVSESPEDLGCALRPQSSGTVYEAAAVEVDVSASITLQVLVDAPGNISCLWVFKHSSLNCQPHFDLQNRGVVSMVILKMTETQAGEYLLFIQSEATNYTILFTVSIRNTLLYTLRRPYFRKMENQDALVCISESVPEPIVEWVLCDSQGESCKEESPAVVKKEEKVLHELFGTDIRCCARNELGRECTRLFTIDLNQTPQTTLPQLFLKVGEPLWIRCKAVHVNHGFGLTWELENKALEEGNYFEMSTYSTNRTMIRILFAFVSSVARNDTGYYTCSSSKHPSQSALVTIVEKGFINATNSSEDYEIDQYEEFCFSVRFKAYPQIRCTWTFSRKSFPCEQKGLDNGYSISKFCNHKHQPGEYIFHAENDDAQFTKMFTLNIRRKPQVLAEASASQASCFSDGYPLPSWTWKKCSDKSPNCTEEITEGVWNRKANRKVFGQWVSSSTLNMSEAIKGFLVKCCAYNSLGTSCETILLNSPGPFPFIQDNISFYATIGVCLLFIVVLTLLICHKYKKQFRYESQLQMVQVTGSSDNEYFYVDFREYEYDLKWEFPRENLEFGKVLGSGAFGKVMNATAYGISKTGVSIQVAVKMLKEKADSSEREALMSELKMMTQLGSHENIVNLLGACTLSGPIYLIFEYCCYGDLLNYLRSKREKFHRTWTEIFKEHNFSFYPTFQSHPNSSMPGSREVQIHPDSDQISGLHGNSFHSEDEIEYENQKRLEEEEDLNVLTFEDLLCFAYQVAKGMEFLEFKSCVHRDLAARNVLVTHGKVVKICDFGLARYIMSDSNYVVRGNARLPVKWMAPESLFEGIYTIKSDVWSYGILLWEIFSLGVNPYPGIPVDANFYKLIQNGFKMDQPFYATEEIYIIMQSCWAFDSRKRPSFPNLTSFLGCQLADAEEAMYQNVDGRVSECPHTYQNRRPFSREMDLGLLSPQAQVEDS
Method in brief: (§1)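 Ba/F3 cells carrying FLT3 mutants grown in RPMI with 10% FBS, exposed 72 h to ten 3-fold dilutions of compound starting from 1 mM DMSO stock. Viability read by CellTiter-Glo luminescence; GI50 fitted from signal versus final concentration.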

[1] = target: T2, FLT3-ITD-F691L Ba/F3 cells (Homo sapiens, UniProt P36888, F691L, cells depend on it, form not given); assay: Growth inhibitory activity against Ba/F3 cell line; type: cell-based; conditions: Ba/F3 expressing FLT3-ITD-F691L; 72 hours; cell titer glo; read-out: IC50 (uM) FLT3-ITD-F691L
T2 sequence (P36888 1-993 F691L): T1 sequence (P36888 1-993 D835Y) with F691L, Y835D
Method in brief: as §1

[2] = tested on: FLT3-ITD-F691L-D835Y Ba/F3 cells; assay: In vivo life-span (survival) in mouse AML model; conditions: for extension of lifespan compared with vehicle control: oral; for Median survival: qd
Description: Nude mice (5-6 weeks old)(Orient) were purchased and used after a week. Mice were anesthetized following IACUC approved animal protocol. FLT3-ITD F691L-D835Y, luc+ Ba/F3 cell (Established in-house) suspension (in 0.1 mL RPMI1640 (Welgene) of 1.0×10^6 cells) was injected into tail vein intravenously using a 29-G needle, and an tail mark was added to each animal for identification. After 6 days, the luminescence intensity was measured using IVIS (Perkin Elmer) to calculate the ROI intensity.
Each compound solution was prepared freshly just before administration. Compounds were administered orally using a mouse sondae once a day, 0.1 mL per mouse. Mice were humanely euthanized if animals experience 20% body weight loss.

Which results are given for NC(=O)Nc1cc(C#Cc2cccc(F)c2)sc1C(=O)N[C@H]1CCCNC1 [Example 22, (S)-5-((3-fluorophenyl)ethynyl)-N-(piperidin-3-yl)-3-ureidothiophene-2-carboxamide]?
GI50 (FLT3-D835Y Ba/F3 cells): 0.052 µM; GI50 [1]: 0.032 µM; extension of lifespan compared with vehicle control ([2]; 15 mpk): 26 days; Median survival ([2]; 15 mpk, po): 23; extension of lifespan compared with vehicle control ([2]; 30 mpk): 29 days; Median survival ([2]; 30 mpk, po): 27; life-span of the mouse model (in words) ([2]; po, qd, 15, 30 mg/kg): extended significantly the life-span
